According to paper PMC6222422, “Synthesis and Biological Evaluation of Novel Indole-Derived Thioureas” (Molecules : A Journal of Synthetic Chemistry and Natural …, 2018):
Converted amounts (≈) assume the structure as drawn.

What was measured:
[1] = system: BVDV; assay: microbe, parasite or virus in culture; assay type: cell-based, bovine viral diarrhoea virus; details: for EC50: Bovine viral diarrhea virus isolates and strains, MDBK, in Bos taurus, read-out: BVDV EC50
[2] = system: YFV; assay: microbe, parasite or virus in culture; assay type: cell-based; details: Yellow fever virus, BHK, read-out: YFV EC50
[3] = system: CV-B5; assay: microbe, parasite or virus in culture; assay type: cell-based, coxsackievirus B5; details: Enterovirus B, CVB5, Vero 76, read-out: CV-B5 EC50
[4] = system: Sb-1; assay: microbe, parasite or virus in culture; assay type: cell-based, poliovirus type-1; details: Enterovirus C, Vero 76, read-out: Sb-1 EC50
[5] = system: Reo-1; assay: microbe, parasite or virus in culture; assay type: cell-based, reovirus type-1; details: for EC50: Reovirus sp., BHK, read-out: Reo-1 EC50
[6] = system: RSV; assay: microbe, parasite or virus in culture; assay type: cell-based, human respiratory syncytial virus; details: for EC50: human respiratory syncytial virus, Vero 76, read-out: RSV EC50
[7] = system: VSV; assay: microbe, parasite or virus in culture; assay type: cell-based; details: Vesicular stomatitis virus, Vero 76, read-out: VSV EC50
[8] = system: VV; assay: microbe, parasite or virus in culture; assay type: cell-based; details: Orthopoxvirus vaccinia, Vero 76, read-out: VV EC50
[9] = system: HSV-1; assay: microbe, parasite or virus in culture; assay type: cell-based, human herpes 1; details: Human alphaherpesvirus 1, Vero 76, read-out: HSV-1 EC50
[10] = system: MDBK cells
[11] = in vitro; details: human
[12] = in vitro; details: cattle (Bos taurus)
[13] = in vitro; details: Syrian hamster (Mesocricetus auratus)
[14] = in vitro; details: African green monkey (Cercopithecus aethiops)
[15] = system: HIV-1; assay: microbe, parasite or virus in culture; details: Human immunodeficiency virus 1, MT4, read-out: HIV-1 EC50
[16] = system: S. aureus NCTC 4163; assay: MIC, twofold serial agar dilution; assay type: cell-based; details: Staphylococcus aureus, NCTC4163, 18 h, 35 °C, read-out: minimal inhibitory concentrations (MIC)
[17] = system: S. aureus ATCC 25923; assay: MIC, twofold serial agar dilution; assay type: cell-based; details: Staphylococcus aureus, ATCC25923, 18 h, 35 °C, read-out: minimal inhibitory concentrations (MIC)
[18] = system: S. aureus ATCC 6538; assay: MIC, twofold serial agar dilution; assay type: cell-based; details: Staphylococcus aureus, ATCC6538, 18 h, 35 °C, read-out: minimal inhibitory concentrations (MIC)
[19] = system: S. aureus ATCC 29213; assay: MIC, twofold serial agar dilution; assay type: cell-based; details: Staphylococcus aureus, ATCC29213, 18 h, 35 °C, read-out: minimal inhibitory concentrations (MIC)
[20] = system: S. epidermidis ATCC 12228; assay: MIC, twofold serial agar dilution; assay type: cell-based; details: Staphylococcus epidermidis, ATCC12228, 18 h, 35 °C, read-out: minimal inhibitory concentrations (MIC)
[21] = system: B. subtilis ATCC 6633; assay: MIC, twofold serial agar dilution; assay type: cell-based; details: Bacillus subtilis, ATCC6633, 18 h, 35 °C, read-out: minimal inhibitory concentrations (MIC)
[22] = system: B. cereus ATCC 11778; assay: MIC, twofold serial agar dilution; assay type: cell-based; details: Bacillus cereus, ATCC11778, 18 h, 35 °C, read-out: minimal inhibitory concentrations (MIC)
[23] = system: M. luteus ATCC 9341; assay: MIC, twofold serial agar dilution; assay type: cell-based; details: Micrococcus luteus, ATCC9341, 18 h, 35 °C, read-out: minimal inhibitory concentrations (MIC)
[24] = system: M. luteus ATCC 10240; assay: MIC, twofold serial agar dilution; assay type: cell-based; details: Micrococcus luteus, ATCC10240, 18 h, 35 °C, read-out: minimal inhibitory concentrations (MIC)
[25] = system: S. aureus NCTC 4163; assay: disc diffusion method; assay type: cell-based, Staphylococcus aureus; details: 5 µg/9 mm disc
[26] = system: S. aureus ATCC 25923; assay: disc diffusion method; assay type: cell-based, Staphylococcus aureus; details: 5 µg/9 mm disc
[27] = system: S. aureus ATCC 6538; assay: disc diffusion method; assay type: cell-based, Staphylococcus aureus; details: 5 µg/9 mm disc
[28] = system: S. aureus ATCC 29213; assay: disc diffusion method; assay type: cell-based, Staphylococcus aureus; details: 5 µg/9 mm disc
[29] = system: S. epidermidis ATCC 12228; assay: disc diffusion method; assay type: cell-based, Staphylococcus epidermidis; details: 5 µg/9 mm disc
[30] = system: B. subtilis ATCC 6633; assay: disc diffusion method; assay type: cell-based, Bacillus subtilis; details: 5 µg/9 mm disc
[31] = system: B. cereus ATCC 11778; assay: disc diffusion method; assay type: cell-based, Bacillus cereus; details: 5 µg/9 mm disc
[32] = system: M. luteus ATCC 9341; assay: disc diffusion method; assay type: cell-based, Micrococcus luteus; details: 5 µg/9 mm disc
[33] = system: M. luteus ATCC 10240; assay: disc diffusion method; assay type: cell-based, Micrococcus luteus; details: 5 µg/9 mm disc
[34] = target: S. aureus topoisomerase IV (Staphylococcus aureus, UniProt P0C1S7+P0C1U9); details: at 32 µg/mL
Chain of S. aureus topoisomerase IV (P0C1U9 whole entry): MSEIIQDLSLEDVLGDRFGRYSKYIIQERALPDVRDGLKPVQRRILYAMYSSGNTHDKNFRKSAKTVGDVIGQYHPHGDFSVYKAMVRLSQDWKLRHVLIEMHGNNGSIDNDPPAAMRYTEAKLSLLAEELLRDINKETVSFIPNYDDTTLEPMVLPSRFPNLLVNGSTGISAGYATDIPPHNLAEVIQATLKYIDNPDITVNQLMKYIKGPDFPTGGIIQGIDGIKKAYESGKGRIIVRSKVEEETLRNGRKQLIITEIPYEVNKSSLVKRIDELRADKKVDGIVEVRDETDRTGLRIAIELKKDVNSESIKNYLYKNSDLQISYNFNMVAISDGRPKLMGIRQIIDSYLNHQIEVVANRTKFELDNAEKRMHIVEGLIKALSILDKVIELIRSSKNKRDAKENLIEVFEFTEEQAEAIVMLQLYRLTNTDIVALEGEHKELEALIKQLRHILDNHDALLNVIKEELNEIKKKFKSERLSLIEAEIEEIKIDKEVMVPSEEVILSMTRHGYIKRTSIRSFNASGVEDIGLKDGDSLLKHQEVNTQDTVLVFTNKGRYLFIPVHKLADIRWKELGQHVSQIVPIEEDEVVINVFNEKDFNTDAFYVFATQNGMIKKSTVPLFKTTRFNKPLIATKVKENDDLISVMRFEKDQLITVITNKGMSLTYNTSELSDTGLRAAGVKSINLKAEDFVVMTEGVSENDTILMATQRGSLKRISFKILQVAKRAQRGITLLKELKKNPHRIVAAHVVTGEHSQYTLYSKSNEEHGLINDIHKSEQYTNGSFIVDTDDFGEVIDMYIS
Chain of S. aureus topoisomerase IV (P0C1S7 whole entry): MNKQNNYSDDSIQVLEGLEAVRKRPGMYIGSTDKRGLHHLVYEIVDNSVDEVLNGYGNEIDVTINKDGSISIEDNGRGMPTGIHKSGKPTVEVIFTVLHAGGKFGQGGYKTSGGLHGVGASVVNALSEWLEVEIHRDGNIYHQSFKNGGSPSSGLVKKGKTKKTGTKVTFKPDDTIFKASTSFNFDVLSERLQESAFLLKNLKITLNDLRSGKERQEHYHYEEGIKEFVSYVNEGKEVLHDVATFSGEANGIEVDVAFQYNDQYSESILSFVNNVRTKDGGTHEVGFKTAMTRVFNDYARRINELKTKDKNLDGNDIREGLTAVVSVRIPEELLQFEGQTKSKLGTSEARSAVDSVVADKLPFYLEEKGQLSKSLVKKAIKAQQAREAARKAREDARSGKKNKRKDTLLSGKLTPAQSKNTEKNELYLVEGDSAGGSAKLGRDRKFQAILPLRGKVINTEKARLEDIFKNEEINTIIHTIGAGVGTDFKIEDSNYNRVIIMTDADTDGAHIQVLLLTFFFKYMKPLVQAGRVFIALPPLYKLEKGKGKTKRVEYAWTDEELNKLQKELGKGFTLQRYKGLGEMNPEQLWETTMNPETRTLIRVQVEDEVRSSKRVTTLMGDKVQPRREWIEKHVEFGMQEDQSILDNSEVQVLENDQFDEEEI

[35] = system: hospital methicillin-susceptible strains of S. aureus (MSSA); assay: MIC against hospital strains; details: Staphylococcus aureus
[36] = system: methicillin-resistant strains of S. aureus (MRSA); assay: MIC against hospital strains; details: Staphylococcus aureus
[37] = system: S. epidermidis (MRSE); assay: MIC against hospital strains; details: Staphylococcus epidermidis
[38] = system: BHK cells; details: Syrian hamster (Mesocricetus auratus)

In the case of `S=C(NCCc1ccccc1)NCCc1c[nH]c2ccccc12` [Compound 16, 1-(2-(1H-Indol-3-yl)ethyl)-3-phenethylthiourea], the “activity against BVDV (in words)” value [1] is reported as “showed activity”, the EC50 [1] is reported as 46 µM and the EC50 [2] is reported as over 18 µM. The EC50 [3] was 18 ± 1.7 µM, the EC50 [4] was over 100 µM and the EC50 [5] was over 18 µM. For the same compound, the “activity against RSV (in words)” value [6] was “moderately active”, the EC50 [6] was 30 ± 2.6 µM and the EC50 [7] was over 100 µM. The EC50 [8] was over 100 µM, the EC50 [9] was over 100 µM and the “cytotoxicity for MDBK cell lines (in words)” value [10] was “lack of cytotoxicity”. It also gave a CC50 [11] of 49 µM, a CC50 [12] of over 100 µM and a CC50 [13] of 18 µM. For the same compound, the CC50 [14] was over 100 µM and the EC50 [15] was over 49 µM.

`O=C(O)c1cn(C2CC2)c2cc(N3CCNCC3)c(F)cc2c1=O` [Ciprofloxacin, reference compound] gave an MIC [16] of 0.25 µg/mL (≈ 0.754 µM), an MIC [17] of 0.5 µg/mL (≈ 1.51 µM) and an MIC [18] of 0.25 µg/mL (≈ 0.754 µM). For the same compound, the MIC [19] was 0.5 µg/mL (≈ 1.51 µM), the MIC [20] was 0.25 µg/mL (≈ 0.754 µM) and the MIC [21] was under 0.12 µg/mL. It also gave an MIC [22] of 0.25 µg/mL (≈ 0.754 µM), an MIC [23] of 0.25 µg/mL (≈ 0.754 µM) and an MIC [24] of 1 µg/mL (≈ 3.02 µM). The “diameter of growth inhibitory zone (GIZ)” value [25] was 26 mm, the “diameter of growth inhibitory zone (GIZ)” value [26] was 26 mm and the “diameter of growth inhibitory zone (GIZ)” value [27] was 28 mm. The “diameter of growth inhibitory zone (GIZ)” value [28] was 22 mm, the “diameter of growth inhibitory zone (GIZ)” value [29] was 30 mm and the “diameter of growth inhibitory zone (GIZ)” value [30] was 38 mm. The “diameter of growth inhibitory zone (GIZ)” value [31] was 26 mm, the “diameter of growth inhibitory zone (GIZ)” value [32] was 26 mm and the “diameter of growth inhibitory zone (GIZ)” value [33] was 25 mm. The “inhibition of decatenation activity of S. aureus topoisomerase IV” value [34] was “almost completely inhibited”, the MIC ([35]; hospital S. aureus MSSA strain 440/11) was 0.4 µg/mL (≈ 1.21 µM) and the MIC ([35]; hospital S. aureus MSSA strain 441/11) was 0.4 µg/mL (≈ 1.21 µM). The MIC ([35]; hospital S. aureus MSSA strain 442/11) was 0.4 µg/mL (≈ 1.21 µM), the MIC ([35]; hospital S. aureus MSSA strain 443/11) was 0.4 µg/mL (≈ 1.21 µM) and the MIC ([35]; hospital S. aureus MSSA strain 444/11) was 0.8 µg/mL (≈ 2.41 µM). It also gave an MIC ([35]; hospital S. aureus MSSA strain 445/11) of 0.4 µg/mL (≈ 1.21 µM), an MIC ([35]; hospital S. aureus MSSA strain 446/11) of 0.4 µg/mL (≈ 1.21 µM) and an MIC ([35]; hospital S. aureus MSSA strain 447/11) of 0.8 µg/mL (≈ 2.41 µM). For the same compound, the MIC ([35]; hospital S. aureus MSSA strain 448/11) was 0.8 µg/mL (≈ 2.41 µM), the MIC ([35]; hospital S. aureus MSSA strain 449/11) was 0.4 µg/mL (≈ 1.21 µM) and the MIC ([36]; hospital S. aureus MRSA strain 389/10) was 25 µg/mL (≈ 75.4 µM). For the same compound, the MIC ([36]; hospital S. aureus MRSA strain 390/10) was 100 µg/mL (≈ 302 µM), the MIC ([36]; hospital S. aureus MRSA strain 391/10) was 100 µg/mL (≈ 302 µM) and the MIC ([36]; hospital S. aureus MRSA strain 392/10) was 100 µg/mL (≈ 302 µM). The MIC ([36]; hospital S. aureus MRSA strain 393/10) was 50 µg/mL (≈ 151 µM), the MIC ([36]; hospital S. aureus MRSA strain 394/10) was 25 µg/mL (≈ 75.4 µM) and the MIC ([36]; hospital S. aureus MRSA strain 399/10) was 200 µg/mL (≈ 604 µM). It also gave an MIC ([36]; hospital S. aureus MRSA strain 450/11) of 100 µg/mL (≈ 302 µM), an MIC ([36]; hospital S. aureus MRSA strain 451/11) of 100 µg/mL (≈ 302 µM) and an MIC ([36]; hospital S. aureus MRSA strain 452/11) of 200 µg/mL (≈ 604 µM). It also gave an MIC [37] of 6.25 µg/mL (≈ 18.9 µM), an MIC ([37]; hospital S. epidermidis MRSE strain 430/11) of 0.8 µg/mL (≈ 2.41 µM) and an MIC ([37]; hospital S. epidermidis MRSE strain 432/11) of 50 µg/mL (≈ 151 µM). The MIC ([37]; hospital S. epidermidis MRSE strain 433/11) was 50 µg/mL (≈ 151 µM), the MIC ([37]; hospital S. epidermidis MRSE strain 434/11) was 50 µg/mL (≈ 151 µM) and the MIC ([37]; hospital S. epidermidis MRSE strain 435/11) was 0.4 µg/mL (≈ 1.21 µM). It also gave an MIC ([37]; hospital S. epidermidis MRSE strain 436/11) of 0.4 µg/mL (≈ 1.21 µM), an MIC ([37]; hospital S. epidermidis MRSE strain 437/11) of 0.8 µg/mL (≈ 2.41 µM) and an MIC ([37]; hospital S. epidermidis MRSE strain 438/11) of 0.4 µg/mL (≈ 1.21 µM). The MIC ([37]; hospital S. epidermidis MRSE strain 439/11) was 50 µg/mL (≈ 151 µM).

Compound `C=CCNC(=S)NCCc1c[nH]c2ccccc12` [Compound 18, 1-(2-(1H-Indol-3-yl)ethyl)-3-allylthiourea] has an EC50 [1] of over 100 µM, an EC50 [2] of over 100 µM and an EC50 [3] of over 100 µM. The EC50 [4] was over 100 µM, the “activity against Reo-1 (in words)” value [5] was “not particularly significant” and the EC50 [5] was 61 µM. For the same compound, the EC50 [6] was over 100 µM, the EC50 [7] was over 100 µM and the EC50 [8] was over 100 µM. For the same compound, the EC50 [9] was over 100 µM, the CC50 [38] was over 100 µM and the CC50 [11] was over 100 µM. The CC50 [12] was over 100 µM, the CC50 [13] was over 100 µM and the CC50 [14] was over 100 µM. For the same compound, the EC50 [15] was over 100 µM.
